Measurements from patent publication US8901118B2, “Compounds and methods for kinase modulation, and indications therefor” (Plexxikon Inc., priority 2010, dated 2014).

Experiments:
CYP2C19 = CYP2C19 (Homo sapiens, UniProt P33261); assay: CYP2C19 inhibition (fluorescent substrate CEC); assay type: in vitro ADME; details: read-out: Cyp IC50 2C19
In short: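 Test compound titrated 1:1 across ten concentrations; metabolite fluorescence measured after 37 °C incubation of 15 min (CYP1A2), 30 min (CYP2C19, CYP2D6) or 45 min (CYP2C9). IC50 from signal versus concentration.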

Fms kinase = Fms kinase (Homo sapiens, UniProt P07333); assay: Fms kinase biochemical activity assay (AlphaScreen, biotin-(E4Y)10 phosphorylation); details: 100 μM ATP; read-out: Biochemical Inhibition IC50 Fms
Chain of Fms kinase (P07333 20-972): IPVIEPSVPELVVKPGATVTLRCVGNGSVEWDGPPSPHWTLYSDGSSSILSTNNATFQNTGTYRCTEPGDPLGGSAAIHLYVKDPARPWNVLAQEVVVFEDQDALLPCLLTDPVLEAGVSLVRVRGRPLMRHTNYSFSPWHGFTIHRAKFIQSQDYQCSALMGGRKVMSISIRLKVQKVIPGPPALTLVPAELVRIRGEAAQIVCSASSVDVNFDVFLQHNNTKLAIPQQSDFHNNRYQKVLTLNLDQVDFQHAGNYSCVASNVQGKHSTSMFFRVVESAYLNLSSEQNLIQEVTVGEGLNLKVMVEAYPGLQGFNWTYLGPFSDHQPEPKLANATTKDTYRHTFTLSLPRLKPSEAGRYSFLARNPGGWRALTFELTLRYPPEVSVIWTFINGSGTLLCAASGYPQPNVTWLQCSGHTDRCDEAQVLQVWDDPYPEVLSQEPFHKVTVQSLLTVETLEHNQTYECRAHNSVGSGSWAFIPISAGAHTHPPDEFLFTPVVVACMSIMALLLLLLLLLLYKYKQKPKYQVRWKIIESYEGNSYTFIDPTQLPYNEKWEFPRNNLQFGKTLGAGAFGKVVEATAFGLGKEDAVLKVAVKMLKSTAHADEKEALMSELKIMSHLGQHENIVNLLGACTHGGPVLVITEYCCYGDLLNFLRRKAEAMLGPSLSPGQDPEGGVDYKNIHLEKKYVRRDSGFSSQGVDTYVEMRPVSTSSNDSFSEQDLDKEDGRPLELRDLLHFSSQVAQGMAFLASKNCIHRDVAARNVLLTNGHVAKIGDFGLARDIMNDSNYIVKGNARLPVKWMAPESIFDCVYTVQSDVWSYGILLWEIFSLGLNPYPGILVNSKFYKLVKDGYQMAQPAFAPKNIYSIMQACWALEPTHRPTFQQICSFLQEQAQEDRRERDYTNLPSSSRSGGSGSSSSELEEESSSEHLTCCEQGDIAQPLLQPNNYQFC
In short: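 AlphaScreen read-out (PY20 acceptor, streptavidin donor beads, EDTA stop) of biotin-(E4Y)10 phosphorylation, with IC50 taken from the concentration–signal curve. Reaction: 30 nM substrate, 100 μM ATP, 1 ng/well Fms, Hepes pH 7.5 with Mg2+/Mn2+, 5% DMSO, 20 min at 30 °C.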

Chain of CYP2C19 (P33261 whole entry): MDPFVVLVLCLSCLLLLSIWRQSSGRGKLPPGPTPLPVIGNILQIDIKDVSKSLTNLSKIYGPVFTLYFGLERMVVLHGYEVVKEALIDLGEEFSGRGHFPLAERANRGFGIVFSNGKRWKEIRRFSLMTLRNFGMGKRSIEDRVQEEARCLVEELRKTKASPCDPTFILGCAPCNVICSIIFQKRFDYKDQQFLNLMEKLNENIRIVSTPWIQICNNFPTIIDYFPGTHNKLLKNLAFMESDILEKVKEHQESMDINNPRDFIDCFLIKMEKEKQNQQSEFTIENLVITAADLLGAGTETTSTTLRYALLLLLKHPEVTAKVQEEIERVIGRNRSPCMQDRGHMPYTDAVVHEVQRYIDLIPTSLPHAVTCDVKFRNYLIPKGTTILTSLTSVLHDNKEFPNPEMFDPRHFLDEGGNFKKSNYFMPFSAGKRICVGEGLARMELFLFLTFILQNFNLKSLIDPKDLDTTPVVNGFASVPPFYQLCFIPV

IC50 (CYP2C19) | IC50 (Fms kinase) | SMILES
< 5 µM | < 0.01 µM | COc1ccc(Nc2ccc(Cc3c[nH]c4ncnc(C5CC5)c34)c(F)n2)cn1 [Compound P-4023, [5-(4-cyclopropyl-7H-pyrrolo[2,3-d]pyrimidin-5-ylmethyl)-6-fluoro-pyridin-2-yl]-(6-methoxy-pyridin-3-yl)-amine]
5 to 10 µM | < 0.01 µM | CCc1ccc(Nc2ccc(Cc3c[nH]c4ncnc(C5CC5)c34)c(F)n2)cn1 [Compound P-4028, [5-(4-Cyclopropyl-7H-pyrrolo[2,3-d]pyrimidin-5-ylmethyl)-6-fluoro-pyridin-2-yl]-(6-ethyl-pyridin-3-yl)-amine]
> 10 µM | < 0.01 µM | CCc1ccc(Nc2ccc(C(=O)c3c[nH]c4ncnc(C5CC5)c34)c(F)n2)cn1 [Compound P-4029, (4-Cyclopropyl-7H-pyrrolo[2,3-d]pyrimidin-5-yl)-[6-(6-ethyl-pyridin-3-ylamino)-2-fluoro-pyridin-3-yl]-methanone]
5 to 10 µM | < 0.01 µM | Cc1ccc(Nc2ccc(Cc3c[nH]c4ncnc(C5CC5)c34)c(F)n2)cn1 [Compound P-4030, [5-(4-Cyclopropyl-7H-pyrrolo[2,3-d]pyrimidin-5-ylmethyl)-6-fluoro-pyridin-2-yl]-(6-methyl-pyridin-3-yl)-amine]
5 to 10 µM | < 0.01 µM | CCn1cc(Nc2ccc(Cc3c[nH]c4ncnc(C5CC5)c34)c(F)n2)cn1 [Compound P-4036, [5-(4-Cyclopropyl-7H-pyrrolo[2,3-d]pyrimidin-5-ylmethyl)-6-fluoro-pyridin-2-yl]-(1-ethyl-1H-pyrazol-4-yl)-amine]
> 10 µM | < 0.1 µM | CCn1cc(Nc2ccc(C(=O)c3c[nH]c4ncnc(C5CC5)c34)c(F)n2)cn1 [Compound P-4037, (4-Cyclopropyl-7H-pyrrolo[2,3-d]pyrimidin-5-yl)-[6-(1-ethyl-1H-pyrazol-4-ylamino)-2-fluoro-pyridin-3-yl]-methanone]
< 5 µM | < 0.01 µM | Fc1nc(Nc2ccc(C3CC3)nc2)ccc1Cc1c[nH]c2ncnc(NCC(F)(F)F)c12 [Compound P-4130, 5-[[6-[(6-cyclopropyl-3-pyridyl)amino]-2-fluoro-3-pyridyl]methyl]-N-(2,2,2-trifluoroethyl)-7H-pyrrolo[2,3-d]pyrimidin-4-amine]

Further lines, the compound ahead of its results:

SMILES | IC50 (CYP2C19) | IC50 (Fms kinase)
COCCOc1ncnc2[nH]cc(Cc3ccc(Nc4ccc(OC)nc4)nc3F)c12 [Compound P-4019, {6-Fluoro-5-[4-(2-methoxy-ethoxy)-7H-pyrrolo[2,3-d]pyrimidin-5-ylmethyl]-pyridin-2-yl}-(6-methoxy-pyridin-3-yl)-amine] | 5 to 10 µM | < 0.01 µM
COc1ccc(Nc2ccc(C(=O)c3c[nH]c4ncnc(C5CC5)c34)c(F)n2)cn1 [Compound P-4022, (4-cyclopropyl-7H-pyrrolo[2,3-d]pyrimidin-5-yl)-[2-fluoro-6-(6-methoxy-pyridin-3-ylamino)-pyridin-3-yl]-methanone] | 5 to 10 µM | < 0.1 µM
CCOc1ccc(Nc2ccc(C(=O)c3c[nH]c4ncnc(OC)c34)c(F)n2)cn1 [Compound P-4024, [6-(6-Ethoxy-pyridin-3-ylamino)-2-fluoro-pyridin-3-yl]-(4-methoxy-7H-pyrrolo[2,3-d]pyrimidin-5-yl)-methanone] | > 10 µM | < 1 µM
CCOc1ncnc2[nH]cc(C(=O)c3ccc(Nc4ccc(OC)nc4)nc3F)c12 [Compound P-4025, (4-Ethoxy-7H-pyrrolo[2,3-d]pyrimidin-5-yl)-[2-fluoro-6-(6-methoxy-pyridin-3-ylamino)-pyridin-3-yl]-methanone] | 5 to 10 µM | < 1 µM
Cc1ccc(Nc2ccc(C(=O)c3c[nH]c4ncnc(C5CC5)c34)c(F)n2)cn1 [Compound P-4031, (4-Cyclopropyl-7H-pyrrolo[2,3-d]pyrimidin-5-yl)-[2-fluoro-6-(6-methyl-pyridin-3-ylamino)-pyridin-3-yl]-methanone] | > 10 µM | < 0.1 µM
Fc1nc(NC2CCC(F)(F)CC2)ccc1Cc1c[nH]c2ncnc(NCC(F)(F)F)c12 [Compound P-4128, 5-[[6-[(4,4-difluorocyclohexyl)amino]-2-fluoro-3-pyridyl]methyl]-N-(2,2,2-trifluoroethyl)-7H-pyrrolo[2,3-d]pyrimidin-4-amine] | > 10 µM | < 0.1 µM
Fc1nc(NC2CCC(F)(F)CC2)ccc1Cc1c[nH]c2ncnc(NC3CC3)c12 [Compound P-4129, N-cyclopropyl-5-[[6-[(4,4-difluorocyclohexyl)amino]-2-fluoro-3-pyridyl]methyl]-7H-pyrrolo[2,3-d]pyrimidin-4-amine] | > 10 µM | < 0.1 µM
